Publication PMC11395333, “The Bifunctional Dimer Caffeine-Indan Attenuates α-Synuclein Misfolding, Neurodegeneration and Behavioral Deficits after Chronic Stimulation of Adenosine A1 Receptors” (International Journal of Molecular Sciences, 2024)

Key:
[1] = system: male Sprague-Dawley rats; test: Open field test after 7-day chronic i.p. CPA injection; type: in vivo, rat
Text: All animals were housed and treated humanely following the guidelines from the following governing bodies: National Research Council (US) Committee for the Update of the Guide for the Care and Use of Laboratory Animals (Washington DC, USA, 2011); Canadian Council on Animal Care (CCAC); and the University of Saskatchewan Animal Research Ethics Board (AREB), which approved our Animal Use Protocol (#20070090 and #20170079). The animals were housed in cages of two, with access to food pellets and water ad libitum. The four treatments of the Sprague-Dawley rats consisted of the following: 1. Control (0.1% DMSO in 0.9% saline); 2. CPA; 3. […] Drugs were dissolved at 3 mg/mL in DMSO, and each drug was administered to the animals by daily i.p. injections (3 mg/kg or 5 mg/kg body weight) for 7 consecutive days. […] Then, on days 8 and 9 following the final injections, the animals were subjected to several behavioral tests. The open field is a general locomotor test that detects anxiety and willingness to explore. The test is conducted in a white open cube measuring 50 cm in length, 50 cm in width and 35 cm in depth. The bottom field is gridded in 4x4 squares at 12.5 cm, with a center square in the middle of the field. The animal is placed in the center square and is free to explore the entirety of the field for 15 min. […] This trial is then used to calculate the percentage of time the animals spent in the center zone (red square) and the total fecal boli count. A video camera was used to record the animal movement in this test. The open field test was conducted after a 1 h resting period from the time the Y-maze second trial was completed. Each experiment was repeated at least ten times per treatment and the average of each treatment is presented in the bar graphs as average means ± SEM.

[2] = system: α-Syn; design: method as in PMID 27673434; conditions: isothermal titration calorimetry; cited from earlier work
[3] = system: one- and two-copied α-Syn-Green Fluorescent Protein (GFP) yeast strain; design: method as in PMID 27673434; conditions: cited from earlier work

SMILES | Open field, percentage of time spent in the center square ([1]; CPA 3 mg/kg i.p. daily for 7 days, alone) | Binding constant with α-Syn [2] [M⁻¹] | Number of binding sites with α-Syn [2] | Rescue from α-Syn-induced cell death ([3]; galactose promoter) | Prevention of large α-Syn foci ([3]; one- and two-copied α-Syn-GFP yeast) | Open field, fecal boli count ([1]; 3 and 5 mg/kg i.p. with 3 mg/kg CPA, 7 days) | Open field, exploratory behavior and anxiety ([1]; co-administered with 3 mg/kg CPA, 7 days)
OC[C@H]1O[C@@H](n2cnc3c(NC4CCCC4)ncnc32)[C@H](O)[C@@H]1O [CPA, N^6-Cyclopentyladenosine, reference compound] | significantly lower percentage of time spent in the center square |  |  |  |  |  | 
Cn1c(=O)c2c(nc(CCCCCCNC3CCc4ccccc43)n2C)n(C)c1=O (stereo not shown) [C8–6–I] |  | 53000 | one binding site | successful in rescuing the one- and two-copied α-Syn-Green Fluorescent Protein (GFP) yeast strain from α-Syn-induced cell death | effective in preventing large α-Syn foci | significantly decreased the fecal boli count | improved the exploratory behavior and reduced the anxiety caused by CPA
